Results on twelve compounds are retold here after patent US20150368248A1, “2-SUBSTITUTED-6-BIARYLMETHYLAMINO-9-CYCLOPENTYL-9H-PURINE DERIVATIVES, USE THEREOF AS MEDICAMENTS, AND PHARMACEUTICAL COMPOSITIONS” (UNIVERZITA PALACKEHO V OLOMOUCI, priority 2013, published 2015).

Like-named read-outs stand apart in the source and are kept apart here.

The subject of one data set is HCC-1.1 (3sp). The experiment in a line: MTT cytotoxicity assay (Example 30). It is filed as cell-based. The note with it: Homo sapiens, 72 h; MTT, three days after drug addition; read-out: Inhibitory concentration IC50, 3sp. The protocol:
(§1) Cytotoxicity of the compounds is the major property determining their anticancer effect in vivo. One of the parameters used, as the basis for cytotoxicity assays, is the metabolic activity of viable cells.
(§2) We have been using the following cell lines: HUH-7 and PLC/PRF/5 cell lines were maintained in DMEM supplemented with 10% fetal bovine serum, penicillin (100 U/ml) and streptomycin (100 μg/ml). […] HepG2 cell line was maintained in EMEM supplemented with 10% fetal bovine serum, sodium pyruvate (0.11 g/1), penicillin (100 U/ml) and streptomycin (100 μg/ml). All cell lines were cultivated at 37° C. in 5% CO2. For cytotoxicity assays, 3000 cells (10000 cells in case of HepG2 cell line) were seeded into each well of 96 well plate and the next day tested compounds were added at various concentrations in triplicates. Three days after drug addition MTT stock solution (5 mg/ml) was added into each well and incubated for 4 h. After this incubation period, produced formazan was dissolved by DMSO and final absorbance was measured at 570 nm with Synergy H4 Hybrid Multi-Mode Microplate Reader.
On the technique in general: Tetrazolium dyes change colour on reduction, which living cells bring about.

The next data set deals with Hep3B. As to the kind of experiment: MTT cytotoxicity assay (Example 30). It is filed as cell-based, human. The note with it: MTT, three days after drug addition, read-out: Inhibitory concentration IC50, Hep3B. How it is done:
as §1, §2

Data set [1] relates to human umbilical vein endothelial cells (HUVECs). As to the kind of experiment: Migration scratch assay. Type of data set: cell-based. Further details: key to Wound area: ++: open; +: partly open; 0: closed. The note with it: 24 h. How it is done: Migration assay was performed as described previously (Krystof et al., 2011, Eur J Med Chem.; 46(9):4289-94). Briefly, confluent HUVECs were scratched and immediately treated for 24 h with various doses of compounds. After incubation each well was photographed using a DP Controller system (Olympus) connected to a Olympus BX50 microscope. Migration was expressed as the proportion of pixels of the wound area in the image that were not covered by cells using “in house” software.

The test system of data set [2] is p53-regulated transcription in Arn8 cells. As to the kind of experiment: p53-dependent transcriptional activity, β-galactosidase reporter. Type of data set: cell-based. To be noted: 24 h incubation. The protocol: Stronger anticancer activity of the compounds is enhanced by its positive impact on stability and activity of the tumour suppressor p53. To measure p53-dependent transcriptional activity, β-galactosidase activity was quantified in the melanoma cell line Arn8, which had been established using stable transfection of cells with a p53-responsive reporter construct pRGCAfoslacZ (Frebung et al., Cancer Res., 52, 1992-6976). Briefly, after 24 h incubation with the inhibitors the Arn8 cells were permeabilized with 0.3% Triton X-100 for 15 min and then 4-methylumbelliferon-β-D-galactopyranoside was added as a substrate to the final concentration of 80 μM. After 1 h the fluorescence of product 4-methylumbelliferon was measured at 355/460 nm (ex/em) with a Fluoroskan Ascent microplate reader (Labsystems). Data in Tab. 8 present that series of 2-substituted-6-biarylmethylamino-9-cyclopentyl-9H-purine derivatives show a dose-dependent activatory effect on p53-regulated transcription, with the maximum impact observed between 100 and 500 nM concentrations for most of prepared compounds (Tab. 8).

For data set [3], the system named is caspase-3/7 activity in Hep3B cell line. The experiment in a line: One-step cellular caspase-3/7 activity assay. The note with it: 24 hours, 0 nM = 1.00. Type of data set: cell-based, human. How it is done:
(§3) Measurements of proapoptotic properties of new compounds were based on quantification of enzymatic activities of caspases, concretely caspases-3/7. Activity of cellular caspase-3/7 was measured according to Carrasco et al., 2003, BioTechniques, 34(5): 1064-67. Briefly, Hep3B and PLC/PRF/5 cells were incubated in the densities of 10000 cells/well in a 96-well plate overnight. Next day, the compounds in appropriate concentrations were added and cells were incubated for the 24 hours. After incubation, 3× caspase-3/7 assay buffer (150 mM HEPES pH 7.4, 450 mM NaCl, 150 mM KCl, 30 mM MgCl2, 1.2 mM EGTA, 1.5% Nonidet P40, 0.3% CHAPS, 30% sucrose, 30 mM DTT, 3 mM PMSF) with 150 μM Ac-DEVD-AMC as a substrate (Sigma-Aldrich) was added to the wells and plates were incubated at […]. The caspase-3/7 activity was measured after 6 hours using Fluoroskan Ascent microplate reader (Labsystems) at 346 nm/442 nm (excitation/emission).

Data set [4] relates to caspase-3/7 activity in PLC/PRF/5 cell line. As to the kind of experiment: One-step cellular caspase-3/7 activity assay. It is filed as cell-based, human. The note with it: 24 hours incubation, relative to 0 nM = 1.00. How it is done:
as §3

Data set [5] relates to human umbilical vein endothelial cells (HUVEC). The experiment in a line: HUVEC proliferation, Calcein AM. Type of data set: cell-based. The note with it: read-out: Inhibitory concentration for HUVEC cells - IC50. How it is done: Novel 2-substituted-6-biarylmethylamino-9-cyclopentyl-9H-purine derivatives were tested for their potential anti-angiogenic properties; we analyzed its influence on the proliferation (Tab. 9), migration and tube formation of human umbilical vein endothelial cells (HUVEC). Confluent HUVECs were seeded in 96-well microtiter plates to detect their proliferation for 24 or 72 h using Calcein AM solution (Invitrogen) and a Fluoroskan Ascent microplate reader (Labsystems) as described previously (Krystof et al., 2011, Eur J Med Chem. 2011 September; 46(9):4289-94).

For orientation: melting point means the temperature, or range, at which the solid turns liquid. In the case of `Clc1nc(NCc2ccc(-c3ccco3)nc2)c2ncn(C3CCCC3)c2n1` [BP116, (2-chloro-9-cyclopentyl-9H-purine-6-yl)-(6-furan-2-yl-pyridin-3-ylmethyl)-amine], the melting point lay within 119 to 122 °C. In the data set with HCC-1.1 (3sp), the IC50 stood at 371 nM. In addition, the IC50 with Hep3B (Homo sapiens, Hep3B, 72 h) amounted to 298 nM.

Regarding `Cn1cnc2c(NCc3ccccc3)nc(NCCO)nc21` [olomoucine, reference compound], the Wound area in data set [1] (100 nM) and in data set [1] (1000 nM) was 0 in each case.

Regarding `Clc1nc(NCc2ccc(Br)cc2)c2ncn(C3CCCC3)c2n1` [BP101, (4-bromo-benzyl)-(2-chloro-9-cyclopentyl-9H-purine-6-yl)-amine], the melting point was 152 to 154 °C.

As to `Clc1nc(NCc2ccc(-n3cccn3)cc2)c2ncn(C3CCCC3)c2n1` [BP23, (2-chlor-9-cyclopentyl-9H-purine-6-yl)-(4-pyrazol-1-yl-benzyl)-amine], the melting point lay in the range of 165 to 167 °C. Also, in the data set on HCC-1.1 (3sp), the IC50 came out at 468 nM. In addition, in the data set with Hep3B (Homo sapiens, Hep3B, 72 h), the IC50 came out at 432 nM.

`Clc1nc(NCc2ccc(-c3cccs3)nc2)c2ncn(C3CCCC3)c2n1` [BP29, (2-chlor-9-cyclopentyl-9H-purine-6-yl)-(6-thiophen-2-yl-pyridin-3-ylmethyl)-amine]: the melting point lay within 111 to 114 °C. Also, the IC50 in the data set with HCC-1.1 (3sp) is 843 nM. The IC50 with Hep3B (Homo sapiens, Hep3B, 72 h) was found to be 792 nM.

Consider `CC[C@H](CO)Nc1nc(NCc2ccccc2)c2ncn(C(C)C)c2n1` [roscovitine, reference compound], for which, in data set [2], the “Concentration of maximum activation” value is >10000 nM. Also, the Wound area in data set [1] (100 nM) and in data set [1] (1000 nM) was 0 in each case.

`NC1CCC(Nc2nc(NCc3ccc(-c4ccccc4O)cc3)c3ncn(C4CCCC4)c3n2)CC1` (centres unmarked) [BP17, N^2-(4-amino-cyclohexyl)-9-cyclopentyl-N^6-(2′-hydroxy-biphenyl-4-ylmethyl)-9H-purine-2,6-diamine] came in with a melting point of 168 to 170 °C. Further, the “Concentration of maximum activation” value in data set [2] amounted to 950 nM. In addition, the “Relative caspase-3/7 activity in Hep3B cell line” value in data set [3] (200 nM) turned out to be 0.89. The “Relative caspase-3/7 activity in Hep3B cell line” value in data set [3] (400 nM) is on record as 0.87. The “Relative caspase-3/7 activity in Hep3B cell line” value in data set [3] (800 nM) is 0.96. In addition, the “Relative caspase-3/7 activity in Hep3B cell line” value in data set [3] (1600 nM) turned out to be 0.63. Besides, the “Relative caspase-3/7 activity in PLC/PRF/5 cell line” value in data set [4] (compound concentration 160 nM) worked out at 1.08. In data set [4] (compound concentration 320 nM), the “Relative caspase-3/7 activity in PLC/PRF/5 cell line” value is on record as 1.09. In addition, in data set [4] (compound concentration 640 nM), the “Relative caspase-3/7 activity in PLC/PRF/5 cell line” value is given as 0.99. The “Relative caspase-3/7 activity in PLC/PRF/5 cell line” value in data set [4] (compound concentration 1280 nM) is 1.20.

As to `CCC(CO)Nc1nc(NCc2ccc(-c3ccccn3)cc2)c2ncn(C(C)C)c2n1` (centres unmarked) [CR8, reference compound], the IC50 in data set [5] (24 h) is > 50000 nM; in data set [5] (72 h), 610 nM; with Hep3B it was > 2000 nM. In addition, in data set [2], the “Concentration of maximum activation” value came to 1600 nM. Moreover, the figures for the Wound area in data set [1] (100 nM) and in data set [1] (1000 nM) were 0 and “+”, respectively.

On to `Clc1nc(NCc2ccc(Br)nc2)c2ncn(C3CCCC3)c2n1`, for which the melting point is 178 to 179 °C.

On to `Clc1nc(NCc2ccc(-c3ccco3)cc2)c2ncn(C3CCCC3)c2n1` [BP118, (2-chloro-9-cyclopentyl-9H-purine-6-yl)-(4-furan-2-yl-benzyl)-amine], for which the melting point was in the range of 135 to 137 °C.

Compound `CC(C)(O)CNc1nc(NCc2ccc(Br)cc2)c2ncn(C3CCCC3)c2n1` [BP114, 1-[6-(4-bromo-benzylamino)-9-cyclopentyl-9H-purine-2-ylamino]-2-methyl-propan-2-ol] showed a melting point of 108 to 110 °C.

Turning to `CC(C)(O)CNc1nc(NCc2ccc(-c3ccco3)cc2)c2ncn(C3CCCC3)c2n1` [BP115, 1-[9-Cyclopentyl-6-(4-furan-2-yl-benzylamino)-9H-purine-2-ylamino]-2-methyl-propan-2-ol], the melting point was in the range of 121 to 123 °C. Besides, the “Concentration of maximum activation” value in data set [2] is 870 nM. In addition, in data set [3] (200 nM), the “Relative caspase-3/7 activity in Hep3B cell line” value is 0.94. Also, in data set [3] (400 nM), the “Relative caspase-3/7 activity in Hep3B cell line” value was 1.05. In addition, the “Relative caspase-3/7 activity in Hep3B cell line” value in data set [3] (800 nM) worked out at 1.19. Moreover, in data set [3] (1600 nM), the “Relative caspase-3/7 activity in Hep3B cell line” value is reported as 0.81. Also, the “Relative caspase-3/7 activity in PLC/PRF/5 cell line” value in data set [4] (compound concentration 160 nM) turned out to be 1.17. The “Relative caspase-3/7 activity in PLC/PRF/5 cell line” value in data set [4] (compound concentration 320 nM) is listed as 1.05. In addition, in data set [4] (compound concentration 640 nM), the “Relative caspase-3/7 activity in PLC/PRF/5 cell line” value was determined as 0.88. In data set [4] (compound concentration 1280 nM), the “Relative caspase-3/7 activity in PLC/PRF/5 cell line” value was determined as 0.98.
